Experiments:
[1] = Ratio of drug level in brain to plasma in CB17 SCID mouse at 10 mg/kg, po measured at 4 h; assay type: ADME, organism-based; conditions: brain and plasma, read-out: BPR
[2] = Drug concentration in CB17 SCID mouse brain at 100 mg/kg after 0.25 to 24 hrs; assay type: ADME, organism-based; conditions: in vivo, read-out: Drug uptake
[3] = Toxicity in C57BL/6 mouse assessed as body weight loss at 25 mg/kg, po QD administered for 5 days measured after 24 hrs relative to control; assay type: organism-based; conditions: in vivo
[4] = Unbound drug level in CD-1 mouse brain at 1 mg/kg, iv measured at 2 hrs; assay type: ADME, organism-based; conditions: in vivo
sodium channel site 2 = test: Inhibition of rat sodium channel site2 at 10 uM incubated for 60 mins by scintillation counting method
[5] = target: Serine/threonine-protein kinase SIK2 (Homo sapiens, UniProt Q9H0K1); test: Inhibition of SIK2 (unknown origin)
Cytochrome P450 3A4 = Cytochrome P450 3A4 (Homo sapiens, UniProt P08684); test: Inhibition of CYP3A4 in human liver microsomes using midazolam as substrate incubated for 5 mins in presence of NADPH by LC/MS/MS analysis; assay type: ADME
[6] = Toxicity in C57BL/6 mouse assessed as gross pathology at 50 mg/kg, po QD administered for 5 days measured after 24 hrs relative to control; assay type: organism-based; conditions: in vivo
[7] = Unbound plasma concentration in CD-1 mouse […] at 1 mg/kg, iv measured at 2 hrs by LC/MS/MS method; assay type: ADME, organism-based; conditions: in vivo
[8] = Toxicity in C57BL/6 mouse assessed as mouse death at 25 mg/kg, po BID administered for 5 days measured after 24 hrs; assay type: organism-based; conditions: in vivo
[9] = Drug level in CD-1 mouse brain at 1 mg/kg, iv measured at 2 hrs; assay type: ADME, organism-based; conditions: read-out: Drug uptake
[10] = Toxicity in C57BL/6 mouse assessed as gross pathology at 100 mg/kg, po QD administered for 5 days measured after 24 hrs relative to control; assay type: organism-based; conditions: in vivo
[11] = target: Bone morphogenetic protein receptor type-1B (Homo sapiens, UniProt O00238); test: Inhibition of human ALK6 using casein as substrate in presence of [gamma-33P]-ATP by radiometric hotspot assay
Cytochrome P450 2B6 = Cytochrome P450 2B6 (Homo sapiens, UniProt P20813); test: Inhibition of CYP2B6 in human liver microsomes using bupropion as substrate incubated for 20 mins in presence of NADPH by LC/MS/MS analysis; assay type: ADME
[12] = target: Cannabinoid receptor 1 (CB1) (Homo sapiens, UniProt P21554); test: Inhibition of recombinant human CB1 at 10 uM incubated for 60 mins by scintillation counting method
Cytochrome P450 2C9 = Cytochrome P450 2C9 (Homo sapiens, UniProt P11712); test: Inhibition of CYP2C9 in human liver microsomes using tolbutamide as substrate incubated for 20 mins in presence of NADPH by LC/MS/MS analysis; assay type: ADME
[13] = Toxicity in C57BL/6 mouse assessed as mouse death at 25 mg/kg, po QD administered for 5 days measured after 24 hrs; assay type: organism-based; conditions: in vivo
[14] = Toxicity in C57BL/6 mouse assessed as gross pathology at 25 mg/kg, po QD administered for 5 days measured after 24 hrs relative to control; assay type: organism-based; conditions: in vivo
[15] = Toxicity in C57BL/6 mouse assessed as gross pathology at 25 mg/kg, po BID administered for 5 days measured after 24 hrs relative to control; assay type: organism-based; conditions: in vivo

Cannabinoid receptor 1 (CB1), sequence (P21554 whole entry): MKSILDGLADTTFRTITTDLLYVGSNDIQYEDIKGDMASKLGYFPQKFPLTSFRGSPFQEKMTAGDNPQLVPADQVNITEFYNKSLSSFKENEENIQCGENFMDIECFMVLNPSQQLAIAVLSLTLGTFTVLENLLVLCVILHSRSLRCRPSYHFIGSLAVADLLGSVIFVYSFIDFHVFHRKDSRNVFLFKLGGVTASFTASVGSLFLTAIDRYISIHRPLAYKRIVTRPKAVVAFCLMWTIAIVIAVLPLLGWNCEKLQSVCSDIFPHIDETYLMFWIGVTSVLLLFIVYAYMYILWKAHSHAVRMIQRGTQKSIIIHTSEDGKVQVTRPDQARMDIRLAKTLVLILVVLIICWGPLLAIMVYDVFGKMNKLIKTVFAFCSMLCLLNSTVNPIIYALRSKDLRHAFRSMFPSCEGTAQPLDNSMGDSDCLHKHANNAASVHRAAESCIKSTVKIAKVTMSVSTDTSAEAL
Cytochrome P450 3A4, sequence (P08684 whole entry): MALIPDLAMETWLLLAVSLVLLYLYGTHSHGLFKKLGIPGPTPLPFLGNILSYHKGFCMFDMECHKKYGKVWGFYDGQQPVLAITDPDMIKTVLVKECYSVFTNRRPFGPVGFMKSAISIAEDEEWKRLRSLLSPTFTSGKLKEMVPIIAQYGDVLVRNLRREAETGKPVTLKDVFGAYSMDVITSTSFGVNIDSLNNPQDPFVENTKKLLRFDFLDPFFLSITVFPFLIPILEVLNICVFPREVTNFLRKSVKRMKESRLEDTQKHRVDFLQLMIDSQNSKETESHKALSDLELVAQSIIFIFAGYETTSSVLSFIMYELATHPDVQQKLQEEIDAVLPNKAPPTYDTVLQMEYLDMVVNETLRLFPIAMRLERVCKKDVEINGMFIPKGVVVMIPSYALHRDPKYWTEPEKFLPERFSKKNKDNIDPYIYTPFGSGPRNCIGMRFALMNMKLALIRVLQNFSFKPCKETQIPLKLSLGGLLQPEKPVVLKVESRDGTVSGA
Bone morphogenetic protein receptor type-1B, sequence (O00238 whole entry): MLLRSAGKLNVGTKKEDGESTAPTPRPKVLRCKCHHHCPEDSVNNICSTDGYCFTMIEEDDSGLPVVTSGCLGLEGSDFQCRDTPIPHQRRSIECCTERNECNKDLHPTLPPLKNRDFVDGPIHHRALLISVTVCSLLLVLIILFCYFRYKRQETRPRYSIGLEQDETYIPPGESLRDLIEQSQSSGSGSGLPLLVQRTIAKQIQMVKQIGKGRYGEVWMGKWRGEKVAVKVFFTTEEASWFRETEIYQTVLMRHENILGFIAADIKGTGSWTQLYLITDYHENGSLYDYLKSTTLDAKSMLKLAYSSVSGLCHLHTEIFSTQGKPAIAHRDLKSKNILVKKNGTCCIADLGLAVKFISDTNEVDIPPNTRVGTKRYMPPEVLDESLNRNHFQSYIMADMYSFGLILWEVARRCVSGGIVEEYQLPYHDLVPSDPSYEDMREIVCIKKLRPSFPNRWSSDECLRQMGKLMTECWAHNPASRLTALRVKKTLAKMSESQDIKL
Cytochrome P450 2B6, sequence (P20813 whole entry): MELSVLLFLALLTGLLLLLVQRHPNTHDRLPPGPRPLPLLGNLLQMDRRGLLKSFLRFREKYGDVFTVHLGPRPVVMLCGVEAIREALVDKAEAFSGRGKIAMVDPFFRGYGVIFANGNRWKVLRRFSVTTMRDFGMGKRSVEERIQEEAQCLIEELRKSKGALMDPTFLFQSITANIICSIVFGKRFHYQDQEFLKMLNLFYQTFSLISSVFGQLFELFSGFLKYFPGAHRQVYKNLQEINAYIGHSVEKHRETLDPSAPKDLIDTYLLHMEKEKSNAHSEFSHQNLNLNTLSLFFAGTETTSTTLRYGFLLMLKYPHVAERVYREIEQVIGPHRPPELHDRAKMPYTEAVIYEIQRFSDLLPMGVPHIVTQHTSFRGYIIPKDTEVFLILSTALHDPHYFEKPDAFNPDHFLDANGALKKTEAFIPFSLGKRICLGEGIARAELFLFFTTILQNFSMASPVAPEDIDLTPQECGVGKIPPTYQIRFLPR
Serine/threonine-protein kinase SIK2, sequence (Q9H0K1 whole entry): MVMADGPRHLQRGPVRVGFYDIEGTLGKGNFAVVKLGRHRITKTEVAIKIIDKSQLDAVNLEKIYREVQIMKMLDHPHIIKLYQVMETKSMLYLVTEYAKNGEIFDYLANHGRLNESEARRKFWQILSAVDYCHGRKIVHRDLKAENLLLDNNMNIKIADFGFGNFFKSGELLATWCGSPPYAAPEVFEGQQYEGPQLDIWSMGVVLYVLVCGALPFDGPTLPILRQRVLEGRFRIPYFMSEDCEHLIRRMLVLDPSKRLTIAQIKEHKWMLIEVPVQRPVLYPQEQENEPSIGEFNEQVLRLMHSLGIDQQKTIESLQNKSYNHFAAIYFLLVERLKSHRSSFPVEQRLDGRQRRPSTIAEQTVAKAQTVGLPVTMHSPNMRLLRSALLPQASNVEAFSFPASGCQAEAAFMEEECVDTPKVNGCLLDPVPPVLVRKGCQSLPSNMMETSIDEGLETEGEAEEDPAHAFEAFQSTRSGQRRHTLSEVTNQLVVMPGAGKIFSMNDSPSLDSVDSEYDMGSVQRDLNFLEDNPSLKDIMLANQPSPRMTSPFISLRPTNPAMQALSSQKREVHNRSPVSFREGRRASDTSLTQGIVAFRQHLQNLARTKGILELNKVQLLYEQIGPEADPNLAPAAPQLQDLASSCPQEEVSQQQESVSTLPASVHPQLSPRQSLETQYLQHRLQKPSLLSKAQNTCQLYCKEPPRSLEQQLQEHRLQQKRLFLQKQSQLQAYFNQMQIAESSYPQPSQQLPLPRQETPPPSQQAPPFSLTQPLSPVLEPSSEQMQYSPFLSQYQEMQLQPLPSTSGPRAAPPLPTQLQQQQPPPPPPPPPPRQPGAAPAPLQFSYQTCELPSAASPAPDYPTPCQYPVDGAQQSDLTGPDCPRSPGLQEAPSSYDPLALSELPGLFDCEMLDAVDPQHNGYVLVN
Cytochrome P450 2C9, sequence (P11712 whole entry): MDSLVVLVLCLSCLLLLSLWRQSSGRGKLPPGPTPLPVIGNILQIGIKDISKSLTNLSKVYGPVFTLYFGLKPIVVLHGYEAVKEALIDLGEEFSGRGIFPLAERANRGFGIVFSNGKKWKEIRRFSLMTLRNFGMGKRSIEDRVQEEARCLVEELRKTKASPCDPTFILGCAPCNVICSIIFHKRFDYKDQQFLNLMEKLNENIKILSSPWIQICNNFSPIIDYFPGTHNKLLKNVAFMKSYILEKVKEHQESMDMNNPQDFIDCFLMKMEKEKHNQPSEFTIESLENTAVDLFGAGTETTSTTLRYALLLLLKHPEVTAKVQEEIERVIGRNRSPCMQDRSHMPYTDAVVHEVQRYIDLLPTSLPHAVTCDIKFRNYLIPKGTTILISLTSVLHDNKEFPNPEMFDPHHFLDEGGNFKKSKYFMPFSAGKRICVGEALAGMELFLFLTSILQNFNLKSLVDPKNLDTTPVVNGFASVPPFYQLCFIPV

Row | Compound | Kp at 4 h [1] | concentration [2] | Activity [3] | Drug uptake(free) [4] | inhibition at 1 h, 10 µM (sodium channel site 2) | IC50 [5] | IC50 (Cytochrome P450 3A4) | Activity [6] | Cp(f) [7] | Activity [8] | concentration at 2 h [9] | Activity [10] | IC50 [11] | IC50 (Cytochrome P450 2B6) | inhibition at 1 h, 10 µM [12] | IC50 (Cytochrome P450 2C9) | Activity [13] | Activity [14] | Activity [15]
1 | COc1cc(-c2cncc(-c3ccc(C4CCN(C)CC4)cc3)c2C)cc(OC)c1OC | 0.82 | 39 µM |  |  |  |  |  |  |  |  |  |  |  |  |  |  |  |  | 
2 | COc1cc(-c2cncc(-c3ccc(N4CCNCC4)cc3)c2C)cc(OC)c1OC |  |  | Non-Toxic | 3.7 nM | 72% | 0.336 to 0.924 µM | > 30 µM | Non-Toxic | 0.014 µM | Non-Toxic | 0.123 µM | Non-Toxic | 0.068 µM | > 30 µM | 97% | > 30 µM | Non-Toxic | Non-Toxic | Non-Toxic
